What all share (assay): inhibition of tumour cell growth, NCI panel, 48 h
The subject of test [1] is A549 NSCLC.
In test [2] the test system is HOP-62 NSCLC.
Test [3] relates to K-562 leukemia.
Test [4] concerns NCI-H23 lung.
Test [5] relates to NCI/ADR-RES ovarian.
For test [6], the system named is OVCAR-5 ovarian.
The subject of test [7] is RPMI-8226 leukemia.
Test [8] has as its system SNB-75 CNS.
For test [9], the system named is SW-620 colon.
The subject of test [10] is UACC-257 melanoma.

“And” between values parts separate entries of the source, which are not always exact repeats. Identical values can stand only once.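 96-well plates; 48 h exposure; 5 concentrations. Endpoints by linear interpolation between flanking doses. Not reached: highest tested concentration assigned. GI50 is the concentration that inhibits growth by half. Definition used: TGI = concentration required for complete inhibition of growth.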 Where only a bound is given, the exact number is not on record here.

For `Cc1nc2sc(C(=O)Nc3cccc(Br)c3C)c(N)c2cc1C(O)c1ccccc1` (stereo unspecified), the GI50 in test [1] is 0.0466 µM; in test [2], 0.0549 µM; in test [3], 0.0354 µM; in test [4], 0.0616 µM; in test [5], 0.032 µM; in test [6], 0.061 µM. In addition, the GI50 in test [7] is 0.0455 µM; in test [8] it was 0.0279 µM; in test [9], 0.0382 µM; in test [10], 1.46 µM. The TGI is greater than 100 µM in [1]; 18.5 µM in test [2]; greater than 100 µM in test [3]; 15 µM in test [4]; 12.8 µM in test [5]; greater than 60.2 µM in test [6]. For the same compound, the TGI came out at 7.08 µM in [7], 13.4 µM in test [8], 19.3 µM in [9] and 27 µM in [10].
Take `Cn1c(CCCC(=O)O)nc2cc(N(CCCl)CCCl)ccc21`: the GI50 in test [1] was greater than 100 µM; in [2] it was greater than 76.3 µM; in [3], greater than 100 µM; in [4], 74.9 µM; in test [5], 98.2 µM; in test [6], greater than 100 µM. For the same compound, the GI50 in test [7] is greater than 85.3 µM; in test [8] it was greater than 83.5 µM; in test [9] it was 78.4 µM; in test [10], greater than 94.7 µM. Also, the TGI in test [1], in [2], in test [3], in test [4], in test [5] and in test [6] was greater than 100 µM in each case. Further, the TGI in [7], in test [8], in test [9] and in test [10] was greater than 100 µM in each case.
`Cc1cc(O)ccc1C1=NN(c2ccc(S(N)(=O)=O)cc2)C(=O)CC1`: the GI50 in test [1] was 14 µM and 15.3 µM; in [2], 12.8 µM and 25 µM; in [3], 3 µM and 2.68 µM; in test [4] it was 14.5 µM and 22.5 µM; in test [5], 2.36 µM and 3.9 µM; in test [6] it was greater than 100 µM. Moreover, the GI50 was 2.35 µM and 2.76 µM in test [7]; 2.95 µM and 16.3 µM in test [8]; 2.34 µM and 8.64 µM in test [9]; 31.3 µM and > 100 µM in test [10]. Moreover, the TGI is 50 µM and > 100 µM in test [1]; 46 µM and 86.9 µM in [2]; 50 µM and > 100 µM in test [3]; 50 µM and > 100 µM in test [4]; 50 µM and 30 µM in test [5]; greater than 100 µM in test [6]. The TGI in [7] is 50 µM and 23.6 µM; in test [8], 21.5 µM and 82.9 µM; in test [9], 50 µM and > 100 µM; in [10], 50 µM and > 100 µM.
As for `COC(=O)c1c[nH]c2cc(OC(C)C)c(OC(C)C)cc2c1=O`, the GI50 in test [1] is greater than 100 µM; in [2], 79.6 µM; in [3], greater than 100 µM; in test [4], greater than 100 µM; in [5], greater than 100 µM; in test [6] it was greater than 100 µM. The GI50 in test [7], in [8], in test [9] and in test [10] was greater than 100 µM throughout. The TGI in [1], in [2], in [3], in test [4], in test [5] and in test [6] was greater than 100 µM in each case. Also, the TGI in test [7], in test [8], in test [9] and in test [10] was greater than 100 µM throughout.
As for `O=C(Nc1nc(-c2ccc(Cl)cc2)cs1)c1cc(O)c(O)c(O)c1`, the GI50 in [1] was 276 µM; in test [2], 255 µM; in [3], 167 µM; in test [4], 292 µM; in test [5] it was 183 µM; in test [6], 915 µM. In addition, the GI50 in test [7] is 197 µM; in [8], 162 µM; in test [9], 168 µM; in test [10], 278 µM. Moreover, the TGI was greater than 5000 µM in [1]; 1880 µM in test [2]; greater than 5000 µM in test [3]; 3030 µM in [4]; greater than 5000 µM in test [5]; greater than 5000 µM in [6]. Moreover, the TGI is 1680 µM in test [7], 3990 µM in test [8], greater than 5000 µM in test [9] and 2490 µM in test [10].
`COc1cccc2c1C(=O)c1c(O)c3c(c(O)c1C2=O)C[C@@](O)(C(=O)CO)CC3OC1CC(N)C(OC2CCCCO2)C(C)O1` (stereo partly specified): the GI50 was 0.00469 µM in [1]; 0.0029 µM in test [2]; 0.0247 µM in test [3]; 0.0218 µM in test [4]; 0.0682 µM in test [6]; 0.00394 µM in test [7]. For the same compound, the GI50 is 0.0171 µM in test [8], 0.113 µM in test [9] and 0.129 µM in test [10]. The TGI is 1.15 µM in test [1]; 6.58 µM in [3]; 0.302 µM and 2.33 µM in test [4]; 4.06 µM in test [5]; 2.08 µM and 8.5 µM in test [6]; 1.03 µM and 7.04 µM in test [9]. Also, the TGI in test [10] was 0.455 µM and 3.42 µM.
For `CC1(C)C(N2CCOCC2)CS1(=O)=O` (stereo unspecified), the TGI in test [1], in [2], in test [3], in test [4], in test [5] and in [6] was greater than 10 µM each time. For the same compound, the TGI in test [7], in test [8], in test [9] and in test [10] was greater than 10 µM throughout.
For `COc1cc(C(=O)/C=C/c2cc(-c3ccc4c(c3)OCO4)n[nH]2)cc(OC)c1OC`, the GI50 in test [1] was 2.13 µM; in test [2], 2.32 µM; in test [3] it was 2.17 µM; in [4] it was 2.9 µM; in [5], 2.99 µM; in [6], 2.63 µM. Besides, the GI50 in test [7] is 0.506 µM; in test [8], 2.4 µM; in test [9], 1.62 µM; in test [10], 2.95 µM. Besides, the TGI in test [1] is 6.23 µM; in [2], 6.24 µM; in [3], greater than 100 µM; in test [4], 10.3 µM; in test [5], 12.3 µM; in [6] it was 9.6 µM. The TGI in test [7] came to 2.53 µM; in test [8], 7.27 µM; in test [9], 3.8 µM; in test [10], 9.46 µM.

The record behind these values is PubChem BioAssay (NCI).
